Read-outs that look alike come from different tables or passages of the source.
Key:
[1] = Activation energy of degradation from stability studies; format: physicochemical; settings: formulation without HP-beta-CD, long-term stability results
Experimental: Activation energy (Ea) is the least possible energy required to start a chemical reaction. Molecules need some kinetic energy or velocity to collide with other molecules to start a reaction. No reaction will take place if the collision doesn't happen, or if the molecules don't have enough kinetic energy. The energy needed to initiate the reaction is known as Activation energy.
The activation energy (Ea) of a reaction is measured in joules (J), kilojoules per mole (kJ/mol) or kilocalories per mole (kcal/mol)
The Activation Energy Formula is as follows: […]
Where A is a constant, k is the rate constant, Ea is the activation energy of degradation in kcal/mol, R is the universal gast constant (1.98 calKmole) and I is the absolute temperature (° K).
In the formulation without HP-beta-CD, Ea of TPZ is calculated as 35 kcal/mole based on the long-term stability results. For the HP-beta-CD new formulation, Ea of the complex is calculated at 44 kcal/mole using a new formulation methodology called “Accelerated Stability Assessment Program (ASAP)” that can be executed in a few weeks with a few storage conditions and temperature ranging from 40° C. to 70° C. inclusive. The higher the activation energy, the more kinetically stable the complex is.

[2] = PK of TPZ and metabolites SR4317 and SR4330 after intra-arterial injection of TPZ in NS vs HPβCD; format: in vivo, Sprague Dawley rats; settings: for AUClast, HβC Mean / Cmax, HβC Mean / AUClast, Normal Saline (NS) Mean / Cmax, Normal Saline (NS) Mean: rats
Excerpt: Purpose of the study: To evaluate the pharmacokinetics (PK) of tirapazamine and its metabolites, SR4317 and SR4330 [Graham, M A et al. Cancer Chemother. Pharmacol. (1997) 40 (1): 1-10], after injection of TPZ in 1% HPβCD or normal saline.
Animals: Twenty-four female (12) and male (12) Sprague Daley (SD) rats, weight 200-250 grams, respectively, with femoral artery and jugular vein cannulated, were purchased from, Taconic. Two extra cannulated male and female rates were used to test tolerability with buffer. Each rate was housed individually to safeguard the vessel catheters.
The study parameters are shown in Table 22. began after a 3-day period of adjustment to the animal facility. The study compound was injected into the femoral artery catheter (FAC at 2-1 m (by slow injection. Blood samples were collected from a jugular vein catheter (JVC) at 6 timepoints: 0 (baseline) and after drug administration at 15 and 30 minutes, 1 hr, 2 hr, and 6 hours. The volume of blood sample for each time point was approximately 0.6 mL. Plasma samples were collected in tubes containing sodium heparin as anti-coagulant. Plasma was prepared and frozen in −80° C. Rats were euthanized after the last blood sample (euthanized after the 6 hr time point).
Male rats were around 250 grams, and female 200 grams. There were 8 groups with Groups 1-4 females, and […]. Each group had 3 rats. TPZ was dissolved in NS or […] at a concentration 0.7 mg/mL.
The concentrations of TPZ and its metabolites, SR4317 and SR4330, in rat plasma samples were analyzed using liquid chromatography Tandem Mass Spectrometry (LC-MS) by Primera Analytical Solutions Corp (Princeton, NJ). Standards for TPZ, SR4317 and SR4330 were provided by Teclison, Inc. (Princeton, NJ) for calibration. All analytical data were reviewed for completeness and accuracy. Data transferred manually was cross-checked against source data which was part of the study raw data.
LC-MS analysis was conducted with Sciex 4000 with a Shimadzu LC-30 System.
The concentration data was imported and plotted with SAS program as ADPC (Analysis Dataset of Pharmacokinetics Concentrations) dataset. PK parameters calculated based on ADPC were output as an Analysis Dataset of Pharmacokinetics Parameters (ADPP) dataset.
PK parameters of each profile were calculated by non-compartmental analysis using SAS programming. BLQ (Below the Limit of Quantification) observation prior to the first measurable concentration was imputed as zero, otherwise, the BLQ observation was left as missing.
An apparent first-order terminal elimination rate constant (Kel) was calculated by linear least-squares regression analysis using at least three points (excluding Cmax) in the terminal log-linear phase. Uniform weighting was adopted when performing regression analysis. Linear-up/log-down approach was utilized to calculate AUC.
A linear model was built to evaluate the effect of solution on the PK parameters, adjusting for sex and dose. The model included sex (F, M), solution type (Normal saline, Hydroxypropyl-beta-Cyclodextrin “HP-beta-CD”), and dose (mg) as fixed effects. Sex and solution type are categorical variables (meaning a variable based on a qualitative, not numerical, property) and dose is a continuous variable (meaning a random variable that can take on an infinite number of values within a certain interval that represents measurable data). Separate models were built for each combination of analyte (TPZ, SR4317 and SR4330) and PK parameters (AUClast and Cmax) using the BY statement, which divides the observations from an input data set into groups for processing.
The difference of lease squared means between solution types was estimated. 95% confidence intervals (CI), and p-values for the difference were presented. The significance level (alpha) was set at 0.05, meaning that a p-value less than 0.05 was considered statistically significant.

HCC = settings: cited from earlier work
[3] = mice, intravenous administration; cited from earlier work
advanced NSCLC = settings: cited from earlier work
[4] = cited from earlier work
[5] = system: unresectable intermediate stage HCC; settings: cited from earlier work
[6] = intra-arterial TPZ 3.33 mg/kg in HPβCD
[7] = intra-arterial TPZ 3.33 mg/kg in NS
[8] = intra-arterial TPZ 7 mg/kg in HPβCD
[9] = intra-arterial TPZ 7 mg/kg in NS

Which “activation energy of degradation (Ea)” value [1] does the source give for `Nc1n[n+]([O-])c2ccccc2[n+]1[O-]` [tirapazamine, 3-amino-1,2,4-benotriazine-1,4-di-N-oxide] here?
Its value is 35 kcal/mol.

And the “AUClast HβC/NS Ratio (%)” value ([2]; 3.33 mg/kg)?
The value was 86.94%.

And the “Cmax HβC/NS Ratio (%)” value ([2]; 3.33 mg/kg)?
The value was 91.15%.

And the “dose proportionality of plasma concentrations” value ([2]; 3.33 mg/kg vs. 7 mg/kg in either solvent)?
The value was “dose proportional effect was observed”.

What about the “AUClast HβC/NS Ratio (%)” value ([2]; 7 mg/kg) of the same compound?
The value was 94.02%.

And the “Cmax HβC/NS Ratio (%)” value ([2]; 7 mg/kg)?
The value was 101.02%.

What about the “plasma concentrations, TPZ in NS versus HPβCD” value ([2]; FIG. 23) of the same compound?
The value was “no difference”.

What about the “AUClast, HβC Mean” value [2, 6] of the same compound?
Its value is 781.49 ng·h/mL.

And the “Cmax, HβC Mean” value [2, 6]?
Its value is 1476.67 ng/mL.

And the “AUClast, Normal Saline (NS) Mean” value [2, 7]?
The value was 898.92 ng·h/mL.

What about the “Cmax, Normal Saline (NS) Mean” value [2, 7] of the same compound?
Its value is 1620.00 ng/mL.

And the “AUClast, HβC Mean” value [2, 8]?
The value was 2423.84 ng·h/mL.

And the “Cmax, HβC Mean” value [2, 8]?
Its value is 4468.33 ng/mL.

What about the “AUClast, Normal Saline (NS) Mean” value [2, 9] of the same compound?
The value was 2578.02 ng·h/mL.

And the “Cmax, Normal Saline (NS) Mean” value [2, 9]?
Its value is 4423.33 ng/mL.

And the “CR or partial response (PR), objective response rate (ORR)” value (HCC; 17 patients)?
Its value is 64.7%.

And the “patients who achieved CR as the best target tumor lesion response” value (HCC; 17 patients)?
Its value is 47.1%.

And the “median Time to Progression” value (HCC; mRECIST criteria)?
Its value is “not reached”.

What about the LD10 [3] of the same compound?
The LD10 was 294 mg/kg.

What about the LD50 [3] of the same compound?
The LD50 was 303 mg/kg.

And the “removed from treatment as a result of toxicity” value (advanced NSCLC; arm 1 (with tirapazamine 260-330 mg/m^2) vs arm 2)?
The value was 26%.

And the “patients who developed ≥grade 3 febrile neutropenia” value (advanced NSCLC; arm 1 vs arm 2)?
Its value is “Twenty”.

And the “survival compared with paclitaxel and carboplatin alone” value (advanced NSCLC; tirapazamine added to paclitaxel and carboplatin)?
The value was “does not result in improved survival”.

What about the “necrosis of the left lobe of the liver (histopathology)” value ([4]; 3 mg/kg and 6 mg/kg i.v. with transient left HAL, Day 1) of the same compound?
Its value is 1%.

What about the “survival after 1 and 7 days” value ([4]; 3 mg/kg or 6 mg/kg with left HAL) of the same compound?
Its value is “survived”.

And the “serum alanine transaminase (ALT) level” value ([4]; Day 1, dose-dependent)?
Its value is “elevated on Day 1”.

And the “potentially safe doses combined with transient left HAL” value ([4]; i.v. infusion)?
Its value is no more than 6 mg/kg.

And the “median duration of target lesion response” value ([5]; 15 patients who achieved CR by mRECIST)?
Its value is “not reached”.

And the “median duration of target lesion response” value ([5]; 21 patients who achieved CR or PR)?
Its value is “not reached”.

What about the “treatment emergent AE grade 3 or higher: ALT increased” value ([5]; 27 patients) of the same compound?
The value was 11.1%.

And the “treatment emergent AE grade 3 or higher: AST increased” value ([5]; 27 patients)?
Its value is 14.8%.

And the “treatment emergent AE grade 3 or higher: hypertension” value ([5]; 27 patients)?
The value was 25.9%.

And the “treatment-related AE: ALT increased” value ([5]; 27 patients)?
Its value is 7.4%.

What about the “treatment-related AE: AST increased” value ([5]; 27 patients) of the same compound?
The value was 7.4%.

What about the “treatment-related AE: bradycardia” value ([5]; 27 patients) of the same compound?
The value was 7.4%.

And the “treatment-related AE: fatigue” value ([5]; 27 patients)?
Its value is 7.4%.

And the “treatment-related AE: hypertension” value ([5]; 27 patients)?
Its value is 11.1%.

What about the “CR rate by lesions” value ([5]; 46 target lesions) of the same compound?
The value was 65.2%.

What about the “ORR (CR+PR) by lesions” value ([5]; 46 target lesions) of the same compound?
The value was 78.3%.

What about the “local recurrence in the embolized territory” value ([5]; CR patients) of the same compound?
Its value is 13.3%.

And the “local recurrence in the embolized territory” value ([5]; CR+PR patients)?
Its value is 28.6%.

And the “dose-limiting toxicity (DLT)” value ([5]; all cohorts, with TAE)?
Its value is “no dose-limiting toxicity”.

What about the “patients who achieved CR in target lesions” value ([5]; mRECIST, 25 evaluable patients) of the same compound?
The value was 60.0%.

What about the “patients who achieved CR+PR” value ([5]; mRECIST, 25 evaluable patients) of the same compound?
Its value is 84.0%.

And the “Complete Response (CR) rate” value ([5]; two phase I studies, tirapazamine with TAE)?
The value was 50-60%.

And the “MTD of tirapazamine in combination with TAE” value ([5]; up to 20 mg/m^2 I.A.)?
Its value is “not established”.

— patent publication US20250345356A1, “TIRAPAZAMINE COMPOSITIONS AND METHODS” (priority 2024, published 2025)
